Reference: patent US20190275027A1 (priority 2018, published 2019)

Biological target: L-type channel CaV1.2 (UniProt P15381)
Sequence (P15381 whole entry, looked up): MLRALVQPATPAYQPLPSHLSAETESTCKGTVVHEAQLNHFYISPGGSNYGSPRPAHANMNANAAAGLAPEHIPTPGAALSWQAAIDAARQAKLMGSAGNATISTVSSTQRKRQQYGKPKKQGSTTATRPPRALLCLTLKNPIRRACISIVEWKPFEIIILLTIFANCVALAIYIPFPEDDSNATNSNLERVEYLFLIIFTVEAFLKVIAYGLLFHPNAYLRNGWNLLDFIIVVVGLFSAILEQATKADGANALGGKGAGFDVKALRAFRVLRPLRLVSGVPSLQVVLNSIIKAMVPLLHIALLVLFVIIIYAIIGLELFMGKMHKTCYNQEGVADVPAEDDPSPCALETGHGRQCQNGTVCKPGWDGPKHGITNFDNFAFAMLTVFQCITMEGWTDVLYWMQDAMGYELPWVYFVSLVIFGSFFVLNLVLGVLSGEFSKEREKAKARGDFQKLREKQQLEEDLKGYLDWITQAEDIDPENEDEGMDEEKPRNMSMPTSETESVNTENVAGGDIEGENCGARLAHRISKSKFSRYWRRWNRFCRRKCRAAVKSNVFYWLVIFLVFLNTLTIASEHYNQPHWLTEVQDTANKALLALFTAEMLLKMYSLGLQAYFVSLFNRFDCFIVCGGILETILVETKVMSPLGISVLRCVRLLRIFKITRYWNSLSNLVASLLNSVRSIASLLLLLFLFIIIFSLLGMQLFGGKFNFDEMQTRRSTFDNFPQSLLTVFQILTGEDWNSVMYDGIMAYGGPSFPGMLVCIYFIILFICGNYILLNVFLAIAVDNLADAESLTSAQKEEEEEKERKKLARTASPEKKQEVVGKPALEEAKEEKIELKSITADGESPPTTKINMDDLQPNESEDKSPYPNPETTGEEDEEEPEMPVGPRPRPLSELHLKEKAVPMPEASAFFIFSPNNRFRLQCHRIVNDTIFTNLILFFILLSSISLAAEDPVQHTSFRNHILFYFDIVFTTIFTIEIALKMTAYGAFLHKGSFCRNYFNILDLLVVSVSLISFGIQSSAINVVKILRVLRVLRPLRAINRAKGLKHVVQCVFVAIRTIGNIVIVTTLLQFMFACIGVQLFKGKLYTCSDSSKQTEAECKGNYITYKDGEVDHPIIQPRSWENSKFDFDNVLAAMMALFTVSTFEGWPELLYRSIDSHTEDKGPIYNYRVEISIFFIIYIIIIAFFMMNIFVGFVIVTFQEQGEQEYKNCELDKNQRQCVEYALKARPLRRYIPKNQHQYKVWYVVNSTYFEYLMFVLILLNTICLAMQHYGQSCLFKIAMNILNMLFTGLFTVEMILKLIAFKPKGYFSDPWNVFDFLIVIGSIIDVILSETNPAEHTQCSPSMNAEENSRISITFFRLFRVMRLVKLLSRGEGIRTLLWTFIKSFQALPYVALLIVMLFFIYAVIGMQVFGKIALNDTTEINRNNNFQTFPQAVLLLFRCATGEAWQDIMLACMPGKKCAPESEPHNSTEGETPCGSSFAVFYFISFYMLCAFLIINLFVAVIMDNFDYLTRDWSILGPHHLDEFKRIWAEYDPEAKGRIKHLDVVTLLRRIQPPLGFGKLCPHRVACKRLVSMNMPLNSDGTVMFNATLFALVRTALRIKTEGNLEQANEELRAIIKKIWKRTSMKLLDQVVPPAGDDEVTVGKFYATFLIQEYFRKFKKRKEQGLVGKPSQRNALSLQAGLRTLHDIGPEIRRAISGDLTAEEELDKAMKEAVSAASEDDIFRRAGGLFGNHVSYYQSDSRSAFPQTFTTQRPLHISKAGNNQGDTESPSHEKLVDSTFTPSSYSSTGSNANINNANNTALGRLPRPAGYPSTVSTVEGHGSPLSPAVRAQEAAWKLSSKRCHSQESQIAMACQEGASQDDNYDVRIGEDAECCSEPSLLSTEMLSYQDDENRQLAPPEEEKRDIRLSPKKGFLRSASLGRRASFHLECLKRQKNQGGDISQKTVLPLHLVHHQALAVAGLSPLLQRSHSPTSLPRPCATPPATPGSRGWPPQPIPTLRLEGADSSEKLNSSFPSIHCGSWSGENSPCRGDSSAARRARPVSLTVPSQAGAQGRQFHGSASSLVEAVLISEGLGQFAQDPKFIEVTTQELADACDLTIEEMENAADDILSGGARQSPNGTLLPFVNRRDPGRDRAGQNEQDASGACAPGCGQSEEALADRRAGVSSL

Structure (SMILES): COc1ccc2cc1Oc1ccc(cc1)C[C@H]1c3cc(c(OC)cc3CCN1C)Oc1c(OC)c(OC)cc3c1[C@H](C2)N(C)CC3 [TETN, tetrandrine, reference compound]
- L-Activity IC50: 46.80 ± 10.84 µM
